# Activity calls are given as the source filed them.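 Rule for the calls: active = more than half of replicate measurements showing over 20% loss of kinase signal relative to plate controls; inconclusive = some but at most half of replicates over 20% loss; inactive = no replicate over 20% signal loss.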
# Target: Glycogen synthase kinase-3 alpha (Homo sapiens) (UniProt P49840)
# Assay: concentration-response blocking of human GSK3A – biochemical, luminescence, cell-free homogeneous, retest, dose response (AID 463203)
# Conditions: GSK-3 alpha enzyme, ADP-Glo luminescence, 60 min
# Glycogen synthase kinase-3 alpha (Homo sapiens), sequence (P49840 whole entry, looked up): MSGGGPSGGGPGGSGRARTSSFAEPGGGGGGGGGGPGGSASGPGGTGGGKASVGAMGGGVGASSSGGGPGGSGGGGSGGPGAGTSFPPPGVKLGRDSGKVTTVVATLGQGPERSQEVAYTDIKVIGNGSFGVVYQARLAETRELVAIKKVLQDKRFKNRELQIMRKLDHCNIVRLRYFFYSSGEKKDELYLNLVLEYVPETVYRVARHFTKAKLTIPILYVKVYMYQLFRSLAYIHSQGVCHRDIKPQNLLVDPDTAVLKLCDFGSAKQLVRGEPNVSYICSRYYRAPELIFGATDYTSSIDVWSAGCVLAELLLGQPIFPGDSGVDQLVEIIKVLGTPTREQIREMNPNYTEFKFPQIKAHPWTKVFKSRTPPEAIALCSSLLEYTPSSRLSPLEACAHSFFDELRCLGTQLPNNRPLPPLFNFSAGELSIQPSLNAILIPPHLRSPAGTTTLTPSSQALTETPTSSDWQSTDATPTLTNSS
row,SMILES,AC50
1,CCOc1ccc(Cn2nnc(C(=O)Nc3cc(OC)cc(OC)c3)c2N)cc1,13.7 µM
2,C=CCNC(=S)N1CCN(c2cccc(C(F)(F)F)c2)CC1,> 30 µM (inactive)
3,CCNc1cc(N2CCCC2)ccc1[N+](=O)[O-],> 30 µM (inactive)
4,COc1ccc(SCCN2CC[C@@H](C(C)(C)C)CCC2=O)cc1,23.6 µM
5,COc1ccccc1/C=N/NC(=O)c1nnn(-c2nonc2N)c1-c1cccs1,0.779 µM
6,Cc1nc(NCC2CCCO2)nc2c1C(=O)CC(C)(C)C2 (configuration not stated),> 30 µM (inactive)
7,COc1ccc(NC(=O)CSc2nc3[nH]ncc3c(=O)n2-c2ccccc2OC)cc1OC,> 30 µM (inactive)
8,CCC(=O)/C=C1\Sc2ccc(OC)cc2N1CCO,> 30 µM (inactive)
9,Cc1ccc(NC(=O)CSc2nnc(-c3ccncc3)s2)cc1,> 30 µM (inactive)
10,O=C(CNCC1CCCO1)Nc1ccc([N+](=O)[O-])cc1C(=O)Nc1ccccc1F (configuration not stated),> 30 µM (inactive)
11,CCOc1cc(/C=N/Nc2ncnc(Cl)c2N)ccc1O,29.6 µM
12,CC(=O)N1CCN(c2ccccc2NC(=O)c2ccc(Br)o2)CC1,10.3 µM
13,O=c1ccc2ccccc2o1,> 30 µM (inactive)
14,Cc1ccc(OCC(=O)N2CCN(c3nnc(-c4ccc(C)cc4)c4ccccc34)CC2)cc1,> 30 µM (inactive)
15,COCc1c(C(=O)N/N=C\c2cccnc2)nnn1-c1nonc1N,> 30 µM (inactive)
16,O=[N+]([O-])c1ccc(NCCCN2CCOCC2)c2ncccc12,> 30 µM (inactive)
17,CCN1C(=S)SC(=O)C1=C1C=C(C)N(Cc2ccco2)C(C)=C1,> 30 µM (inactive)
18,COc1ccc(Nc2nc(Cl)c(C=O)s2)cc1,> 30 µM (inactive)
19,Cc1c(C(=O)NCCc2ccccc2)oc2ccccc12,> 30 µM (inactive)
20,CCOc1ccc(Nc2nc(NCc3ccco3)nc(N)c2[N+](=O)[O-])cc1,> 30 µM (inactive)
21,COc1ccc(/C=C2\Oc3cc(OCC(=O)N4CCC[C@H]4C(=O)O)ccc3C2=O)cc1OC,> 30 µM (inactive)
22,CC(/C=N/NC(=O)c1nnn(-c2nonc2N)c1C(C)C)=C\c1ccccc1,> 30 µM (inactive)
23,CCCOc1cccc(-c2nnc(N)s2)c1,> 30 µM (inactive)
24,Cc1cccc(N2CCN(C(=O)c3cc4c(=O)[nH]c5ccccc5c4n3C)CC2)c1C,> 30 µM (inactive)
25,COc1c2ccccc2c(OC)c2ccccc12,> 30 µM (inactive)
26,CCCc1cc(NCc2ccccn2)n2c(nc3ccccc32)c1C#N,> 30 µM (inactive)

row,SMILES,AC50
1,COc1cccc(OCc2cc(C(=O)NCc3ccc4c(c3)OCO4)no2)c1,> 30 µM (inactive)
2,O=C1/C(=C/c2ccc(Br)cc2)Oc2cc(O)ccc21,> 30 µM (inactive)
3,C/C(=N/NC(=O)c1ccc(C)s1)c1ccncc1,27.3 µM
4,Cc1cccc(C(=O)OCC(=O)Nc2c(C)n(C)n(-c3ccccc3)c2=O)c1,> 30 µM (inactive)
5,O=C(CSCc1ccc([N+](=O)[O-])cc1)N/N=C/c1cccnc1,> 30 µM (inactive)
6,COC(=O)c1c(NC(=O)CN2C(=O)NC3(CCc4ccccc4C3)C2=O)sc2c1CCCCC2 (configuration not stated),> 30 µM (inactive)
7,CSc1ccc(/C=C2\NC(=O)NC2=O)cc1,27.9 µM
8,O=c1c(O)c(-c2cc(O)c(O)c(O)c2)oc2cc(O)cc(O)c12,4.13 µM
9,COc1cc(OC)cc(-c2nnc(SCc3c(F)cccc3Cl)o2)c1,> 30 µM (inactive)
10,CCOC(=O)c1cc(C(=O)OCC)c2cc(Br)ccc2n1,> 30 µM (inactive)
11,CCOC(=O)c1cccc(NC(=O)C2CCCN2S(=O)(=O)c2cccc3cccnc23)c1 (configuration not stated),29.5 µM
12,N#Cc1c(NC(=O)CSc2n[nH]c(N)n2)oc(-c2ccccc2)c1-c1ccccc1,> 30 µM (inactive)
13,Cc1ccc2nc(-c3cccc(N)c3)[nH]c2c1,> 30 µM (inactive)
14,N#CC1=C2SCN(Cc3ccco3)CN2C(=O)CC1c1cccc2ccccc12 (configuration not stated),> 30 µM (inactive)
15,COC(=O)c1ccc(CSc2nnc(-c3ccncc3)n2Cc2ccccc2)o1,> 30 µM (inactive)
16,CCOC(=O)c1nnn(-c2nonc2-n2cccc2)c1C,> 30 µM (inactive)
17,COc1ccc(-n2c(C)nc(N)c2C(=O)c2ccccc2)cc1,> 30 µM (inactive)
18,N/C(=N\OC(=O)c1ccc2ccccc2c1)c1cccc([N+](=O)[O-])c1,> 30 µM (inactive)
19,N#Cc1c(N)n(CCNC(=O)c2cccs2)c2nc3ccccc3nc12,25.7 µM
20,CC(C)(C)OC(=O)N1CCC(NC(=O)c2[nH]cnc2C(=O)Nc2ccon2)CC1,4.47 µM
21,Nc1nonc1-c1nc2ccccc2n1CCC(=O)O,16.4 µM
22,Cc1cccc(C(=O)O/N=C(\N)c2cccc([N+](=O)[O-])c2)c1,> 30 µM (inactive)
23,COc1cccc(NC(=O)CN(C)C(=O)C23CC4CC(CC(Cl)(C4)C2)C3)c1,> 30 µM (inactive)
24,O=C(c1ccc2c3n(nc2c1)-c1ccccc1CO3)N1CCOCC1,18.8 µM
25,COc1ccc(CCNc2nc(C)cc(C)n2)cc1OC,> 30 µM (inactive)
26,COc1cccc(C(=O)O/N=C(\N)c2ccccn2)c1OC,> 30 µM (inactive)

# Source: PubChem BioAssay AID463203 (Broad Institute, 2010)
